Measured values as given in US20070004660A1, “Synergistic Modulation of Flt3 Kinase Using Alkylquinolines and Alkylquinazolines” (priority 2005, published 2007).
pIC50: −log10 of the molar value.

Legend:
MV4-11 cells = assay: Inhibition of MV4-11 cell proliferation (CellTiterGlo, 72 h); format: cell-based; settings: Homo sapiens; 72 h growth inhibition; uncertainty ±20%
Method: MV4-11 cells cannot grow and survive without active FLT3ITD.
To measure proliferation inhibition by test compounds, the luciferase based CellTiterGlo reagent (Promega), which quantifies total cell number based on total cellular ATP concentration, was used. Cells are plated at 10,000 cells per well in 100 ul of in RPMI media containing penn/strep, 10% FBS and 1 ng/ml GM-CSF or 1 ng/ml IL-3 for MV4-11 and Baf3 cells respectively.
Compound dilutions or 0.1% DMSO (vehicle control) are added to cells and the cells are allowed to grow for 72 hours at standard cell growth conditions (37° C., 5% CO2). For activity measurements in MV4-11 cells grown in 50% plasma, cells were plated at 10,000 cells per well in a 1:1 mixture of growth media and human plasma (final volume of 100 μL). To measure total cell growth an equal volume of CellTiterGlo reagent was added to each well, according to the manufacturer's instructions, and luminescence was quantified. Total cell growth was quantified as the difference in luminescent counts (relative light units, RLU) of cell number at Day 0 compared to total cell number at Day 3 (72 hours of growth and/or compound treatment). One hundred percent inhibition of growth is defined as an RLU equivalent to the Day 0 reading. Zero percent inhibition was defined as the RLU signal for the DMSO vehicle control at Day 3 of growth. All data points are an average of triplicate samples. […] Inhibition and IC50 data analysis was done with GraphPad Prism using a non-linear regression fit with a multiparamater, sigmoidal dose-response (variable slope) equation.
MV4-11 cells express the FLT3 internal tandem duplication mutation, and thus are entirely dependent upon FLT3 activity for growth. […] In contrast, the Baf3 cell proliferation is driven by the cytokine IL-3 and thus are used as a non-specific toxicity control for test compounds.

[1] = molecular target: T1, isolated kinase domain of the human FLT3 receptor (a.a. 571-993) (Homo sapiens, UniProt P36888); assay: FLT3 fluorescence polarization kinase assay; format: biochemical; settings: 150 uM ATP; uncertainty ±10%
T1 construct: human FLT3 receptor (a.a. 571-993)
T1 sequence (P36888 571-993): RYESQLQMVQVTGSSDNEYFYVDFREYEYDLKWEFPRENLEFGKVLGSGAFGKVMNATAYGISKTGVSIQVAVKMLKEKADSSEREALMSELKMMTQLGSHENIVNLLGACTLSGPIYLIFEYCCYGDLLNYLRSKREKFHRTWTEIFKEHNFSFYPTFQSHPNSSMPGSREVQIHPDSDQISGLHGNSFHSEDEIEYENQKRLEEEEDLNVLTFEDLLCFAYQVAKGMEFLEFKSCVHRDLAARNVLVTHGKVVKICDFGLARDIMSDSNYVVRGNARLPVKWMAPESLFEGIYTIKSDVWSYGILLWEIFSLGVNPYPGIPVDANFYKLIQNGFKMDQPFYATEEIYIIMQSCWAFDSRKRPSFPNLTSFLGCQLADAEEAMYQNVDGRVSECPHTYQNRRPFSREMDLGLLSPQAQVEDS
Method: The FLT3 FP assay utilizes the fluorescein-labeled phosphopeptide and the anti-phosphotyrosine antibody included in the Panvera Phospho-Tyrosine Kinase Kit (Green) supplied by Invitrogen. When FLT3 phosphorylates polyGlu4Tyr, the fluorescein-labeled phosphopeptide is displaced from the anti-phosphotyrosine antibody by the phosphorylated poly Glu4Tyr, thus decreasing the FP value. The FLT3 kinase reaction is incubated at room temperature for 30 minutes under the following conditions: 10 nM FLT3 571-993, 20 ug/mL poly Glu4Tyr, 150 uM ATP, 5 mM MgCl2, 1% compound in DMSO. The kinase reaction is stopped with the addition of EDTA. The fluorescein-labeled phosphopeptide and the anti-phosphotyrosine antibody are added and incubated for 30 minutes at room temperature.
All data points are an average of triplicate samples. Inhibition and IC50 data analysis was done with GraphPad Prism using a non-linear regression fit with a multiparamater, sigmoidal dose-response (variable slope) equation.

SMILES	pIC50 (MV4-11 cells)	pIC50 [1]
COc1cc2ncnc(C3CCN(C(=O)Nc4ccc(C)cc4)CC3)c2cc1OC [Example 48, 4-(6,7-Dimethoxy-quinazolin-4-yl)-piperidine-1-carboxylic acid p-tolylamide]	5.74	5.80
CC(C)c1ccc(NC(=O)N2CCC(c3ccnc4ccccc34)CC2)cc1 [Example 5, 4-Quinolin-4-yl-piperidine-1-carboxylic acid (4-isopropyl-phenyl)-amide]	6.54	7.03
COc1cc2ncnc(C3CCN(C(=O)Nc4ccc5c(c4)CCO5)CC3)c2cc1OC [Example 27, 4-(6,7-Dimethoxy-quinazolin-4-yl)-piperidine-1-carboxylic acid (2,3-dihydro-benzofuran-5-yl)-amide]	5.39	5.70
COc1cc2c(C3CCN(C(=O)Nc4ccc(N5CCCC5)cc4)CC3)ncnc2cc1OCCCN1CCN(C)CC1 [Compound 208, 4-{6-Methoxy-7-[3-(4-methyl-piperazin-1-yl)-propoxy]-quinazolin-4-yl}-piperidine-1-carboxylic acid (4-pyrrolidin-1-yl-phenyl)-amide]	8.52	8.70
COc1cc2ncnc(C3CCN(C(=O)NC4CCCCC4)CC3)c2cc1OC [Example 42, 4-(6,7-Dimethoxy-quinazolin-4-yl)-piperidine-1-carboxylic acid cyclohexylamide]	< 5.00	< 5.00
COc1cc2ncnc(C3CCN(C(=O)Nc4ccc(N5CCN(C)CC5)cc4)CC3)c2cc1OC [Example 20, 4-(6,7-Dimethoxy-quinazolin-4-yl)-piperidine-1-carboxylic acid [4-(4-methyl-piperazin-1-yl-phenyl)]-amide]	5.96	5.18
CS(=O)(=O)N1CC[C@@H](Oc2ccc3c(C4CCN(C(=O)Nc5ccc(N6CCCC6)cc5)CC4)ncnc3c2)C1 [Compound 177, (R)-4-[7-(1-Methanesulfonyl-pyrrolidin-3-yloxy)-quinazolin-4-yl]-piperidine-1-carboxylic acid (4-pyrrolidin-1-yl-phenyl)-amide]	6.58	9.00
COc1cc2ncnc(C3CCN(C(=O)Nc4ccc(OC(F)(F)F)cc4)CC3)c2cc1OC [Example 50, 4-(6,7-Dimethoxy-quinazolin-4-yl)-piperidine-1-carboxylic acid (4-trifluoromethoxy-phenyl)-amide]	6.88	7.08

Results, then the molecule that gave them:

pIC50 (MV4-11 cells)	pIC50 [1]	SMILES
6.05	7.55	O=C(Nc1ccc(N2CCOCC2)nc1)N1CCC(c2ncnc3cc(OCCCn4cnnc4)ccc23)CC1 [Example 110, 4-[7-(3-[1,2,4]Triazol-4-yl-propoxy)-quinazolin-4-yl]-piperidine-1-carboxylic acid (6-morpholin-4-yl-pyridin-3-yl)-amide]
8.10	7.57	COc1cc2ncnc(C3CCN(C(=O)Nc4ccc(N5CCCCCC5)cc4)CC3)c2cc1OC [Example 70, 4-(6,7-Dimethoxy-quinazolin-4-yl)-piperidine-1-carboxylic acid (4-azepan-1-yl-phenyl)-amide]
7.02	7.60	O=C(Nc1ccc(N2CCOCC2)cc1)N1CCC(c2ncnc3cc(N4CC[C@@H](O)C4)ccc23)CC1 [Example 126, (R)-4-[7-(3-Hydroxy-pyrrolidin-1-yl)-quinazolin-4-yl]-piperidine-1-carboxylic acid (4-morpholin-4-yl-phenyl)-amide]
6.44	6.88	O=C(NCCCOc1ccc2c(C3CCN(C(=O)Nc4ccc(N5CCOCC5)nc4)CC3)ncnc2c1)N1CCOCC1 [Example 113, Morpholine-4-carboxylic acid (3-{4-[1-(6-morpholin-4-yl-pyridin-3-ylcarbamoyl)-piperidin-4-yl]-quinazolin-7-yloxy}-propyl)-amide]
8.05	9.00	O=C(Nc1ccc(N2CCCC2)cc1)N1CCC(c2ncnc3cc(N4CC[C@H](O)C4)ccc23)CC1 [Example 129, (S)-4-[7-(3-Hydroxy-pyrrolidin-1-yl)-quinazolin-4-yl]-piperidine-1-carboxylic acid (4-pyrrolidin-1-yl-phenyl)-amide]
